Measured values published in patent publication US11549123B2, “Plant EPSP synthases and methods of use” (PIONEER HI-BRED INTERNATIONAL, INC., priority 2015, dated 2023).

Experiments:
Type in all cases: biochemical
[1] = target: T1, Zea mays EPSPS variant Zm-H6 (868-H6) with H54E (H6-H54E) (Zea mays, UniProt O24566, A1R/A3W/A415G/A71Q/D401G/E301S/E390G/G101A/H53E/I207L/K83R/L97C/T278A/T360S/T440Q/V437R); assay: Rapid two-rate method for (kcat/KM)*KI, H6-H54E; conditions: [E] 0.07 uM, [Gly] 1000 uM
T1 construct: 868-H6 plus H54E; E. coli BL21(DE3), Ni-NTA purified
T1 sequence (O24566 with tags, fused parts or gaps A1R/A3W/H53E/A71Q/K83R/L97C/G101A/I207L/T278A/E301S/T360S/E390G/D401G/A415G/V437R/T440Q): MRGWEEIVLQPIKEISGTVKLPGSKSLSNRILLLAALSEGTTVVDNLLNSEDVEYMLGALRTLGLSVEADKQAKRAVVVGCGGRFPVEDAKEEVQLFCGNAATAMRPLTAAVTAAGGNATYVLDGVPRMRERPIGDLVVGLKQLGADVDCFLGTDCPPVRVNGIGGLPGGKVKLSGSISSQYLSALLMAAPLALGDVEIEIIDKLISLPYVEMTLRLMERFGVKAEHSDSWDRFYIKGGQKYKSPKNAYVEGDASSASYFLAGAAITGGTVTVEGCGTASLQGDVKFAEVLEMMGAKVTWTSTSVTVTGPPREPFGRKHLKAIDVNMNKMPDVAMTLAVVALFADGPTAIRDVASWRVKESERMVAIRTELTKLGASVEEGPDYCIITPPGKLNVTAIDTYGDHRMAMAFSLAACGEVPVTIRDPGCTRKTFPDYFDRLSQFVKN
Description: There are several practical considerations for accurately estimating (kcat/KM)*KI with the rapid method. […] 2) The inhibitor concentration must be adjusted so as to obtain a degree of inhibition that minimally amplifies the error in the term v0-vi in Equation 3. If inhibition is too little, v0-vi will be small, and the error in the multiplier vi×v0/(v0-vi) will be large. […] 3) Substrate concentration should be set at the approximate KM of the parental variant(s), subject to the sensitivity of the assay. High substrate concentration obscures sensitivity to the inhibitor and reduces stringency for capturing improvements in KM. Depending on the necessity for speed, there exists opportunity for customizing enzyme and inhibitor concentrations. […] The rapid method was repeated for those and obtained data that correlated better with data obtained by substrate saturation analysis. For screening purposes however, that correlation step is not necessary. Conditions can be set so that variants with a pre-determined minimal fitness level are accurately quantified.
In Table 15, parameters above the heavy line for the rapid method were obtained under standard conditions. For variants shown below the heavy line, the rapid analysis was repeated with enzyme or glyphosate concentrations adjusted as needed to generate sufficient signal within the limits for linear initial rates.

[2] = target: Oryza sativa EPSPS with 868-H6 mutations, SEQ ID NO:11 (Oryza sativa, UniProt Q93VK6, A482G/A67R/A69W/D368S/D468G/E457G/G168A/I274L/K149R/L164C/T345A/T427S/T507Q/V137Q/V504R); assay: EPSPS substrate saturation kinetics, rice H6
Sequence of Oryza sativa EPSPS with 868-H6 mutations, SEQ ID NO:11 (Q93VK6 64-511 with the stated changes): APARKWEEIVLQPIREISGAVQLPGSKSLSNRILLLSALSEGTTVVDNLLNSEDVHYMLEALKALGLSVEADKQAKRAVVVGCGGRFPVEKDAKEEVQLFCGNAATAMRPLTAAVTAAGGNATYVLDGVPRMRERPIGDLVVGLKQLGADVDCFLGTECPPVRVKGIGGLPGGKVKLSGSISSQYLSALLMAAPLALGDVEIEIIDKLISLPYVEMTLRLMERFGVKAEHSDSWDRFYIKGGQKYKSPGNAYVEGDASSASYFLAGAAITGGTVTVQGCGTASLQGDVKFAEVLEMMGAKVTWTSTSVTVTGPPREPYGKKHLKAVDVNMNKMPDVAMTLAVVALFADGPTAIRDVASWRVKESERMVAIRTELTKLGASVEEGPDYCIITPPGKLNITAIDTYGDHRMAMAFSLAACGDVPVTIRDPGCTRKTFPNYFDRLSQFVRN
Procedure: EPSPS activity was determined by quantifying the phosphate generated from the EPSPS reaction. Release of inorganic phosphate was coupled to reaction with 2-amino-6-mercapto-7-methylpurine ribonucleoside, catalyzed by purine-nucleoside phosphorylase (M R Webb, Proc. Natl. Acad. Sci. 89:4884-4887, 1992). The absorbance change that occurs was monitored at 360 nm, where the extinction is 11,200 M^−1 cm^−1, with a Spectramax plate reader (Molecular Devices). To determine kinetic parameters, the varied substrate was present at seven concentrations (the eighth being the blank, containing no substrate) ranging from 4 to 400 uM and the unvaried substrate present at saturation. […] Reactions were monitored with a Spectramax plate reader. […] KI was then calculated from the following form of the Michaelis-Menten equation for competitive inhibition: KI=KM[I]/(KM app−KM) KM approximates the dissociation constant of the enzyme-substrate complex while kcat is the rate of conversion of substrate to product when the substrate concentration is saturating. kcat/KM is a widely accepted parameter for catalytic efficiency when substrate concentration is low (˜KM). […] The parameter kcat/KM×KI is used to quantify both catalytic efficiency and insensitivity and thus the overall fitness of the enzyme. […]

[3] = target: T2, Zea mays EPSPS variant Zm-T103I (Zea mays, UniProt O24566, T102I); assay: Substrate saturation kinetic analysis with glyphosate, Zm-T103I
T2 construct: native maize plus T103I; E. coli BL21(DE3), Ni-NTA purified
T2 sequence (O24566 with tags, fused parts or gaps T102I): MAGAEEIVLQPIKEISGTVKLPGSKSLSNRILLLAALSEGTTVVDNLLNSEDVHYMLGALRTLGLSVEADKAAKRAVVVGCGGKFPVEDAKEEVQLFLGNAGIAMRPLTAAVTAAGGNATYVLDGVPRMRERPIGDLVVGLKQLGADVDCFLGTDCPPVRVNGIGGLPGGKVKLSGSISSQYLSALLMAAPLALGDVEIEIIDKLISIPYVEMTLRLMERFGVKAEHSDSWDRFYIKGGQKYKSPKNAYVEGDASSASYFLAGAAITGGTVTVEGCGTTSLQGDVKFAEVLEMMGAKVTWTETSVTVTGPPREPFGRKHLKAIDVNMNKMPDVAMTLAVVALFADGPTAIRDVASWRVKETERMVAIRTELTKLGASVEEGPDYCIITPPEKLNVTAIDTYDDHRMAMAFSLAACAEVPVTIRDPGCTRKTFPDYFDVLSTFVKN

O=C(O)CNCP(=O)(O)O [glyphosate, N-phosphonomethylglycine]
(kcat/KM)*KI [1]: 4529
Ki [2]: 907 µM
(kcat/KM)*KI ([2]; PEP as substrate, glyphosate as inhibitor): 9200
Ki [3]: 53 µM
(kcat/KM)*KI ([3]; substrate saturation, Zm-T103I): 99
